In ChEMBL document CHEMBL1201862, “PubChem BioAssay data set” (2004):
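Interpolation was linear, between the two tested concentrations surrounding the appropriate level; five concentrations were tested over 48 hours in 96-well plates. GI50 marks 50% less growth.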 The source made the active and inactive calls. Cut-off read from the data, not from the text of the source: active = GI50 up to about 1.1 µM and inactive = higher.

Key:
Assay in all cases: NCI tumour cell line growth inhibition, 48 h
SNB-75 = tested on: SNB-75
SK-MEL-2 = tested on: SK-MEL-2
OVCAR-8 = tested on: OVCAR-8
KM12 = tested on: KM12
SK-MEL-28 = tested on: SK-MEL-28
OVCAR-3 = tested on: OVCAR-3
COLO 205 = tested on: COLO 205
OVCAR-5 = tested on: OVCAR-5
HT-29 = tested on: HT-29
HOP-92 = tested on: HOP-92
SF-539 = tested on: SF-539
MCF7 = tested on: MCF7
NCI-H522 = tested on: NCI-H522
HCT-15 = tested on: HCT-15
SN12C = tested on: SN12C
MDA-N = tested on: MDA-N
MOLT-4 = tested on: MOLT-4
NCI/ADR-RES = tested on: NCI/ADR-RES
K562 = tested on: K562
786-0 = tested on: 786-0
MDA-MB-231 = tested on: MDA-MB-231
IGROV-1 = tested on: IGROV-1
SK-MEL-5 = tested on: SK-MEL-5
TK-10 = tested on: TK-10
LOX IMVI = tested on: LOX IMVI
U-251 = tested on: U-251
A549 = tested on: A549
SR = tested on: SR
SF-295 = tested on: SF-295
HL-60 = tested on: HL-60
SW-620 = tested on: SW-620
T47D = tested on: T47D
UO-31 = tested on: UO-31
RPMI-8226 = tested on: RPMI-8226
Malme-3M = tested on: Malme-3M
HCC 2998 = tested on: HCC 2998
M14 = tested on: M14
BT-549 = tested on: BT-549
MDA-MB-435 = tested on: MDA-MB-435
PC-3 = tested on: PC-3
UACC-257 = tested on: UACC-257
DU-145 = tested on: DU-145
SF-268 = tested on: SF-268
A498 = tested on: A498
CAKI-1 = tested on: CAKI-1
SK-OV-3 = tested on: SK-OV-3
ACHN = tested on: ACHN
EKVX = tested on: EKVX
RXF 393 = tested on: RXF 393
OVCAR-4 = tested on: OVCAR-4
NCI-H226 = tested on: NCI-H226
UACC-62 = tested on: UACC-62
HCT-116 = tested on: HCT-116
CCRF-CEM = tested on: CCRF-CEM
HOP-62 = tested on: HOP-62
NCI-H23 = tested on: NCI-H23
NCI-H460 = tested on: NCI-H460
SNB-19 = tested on: SNB-19
Hs-578T = tested on: Hs-578T

CC(C)NC(=O)OCc1c(COC(=O)NC(C)C)c(-c2cc[n+](COC(=O)C3CC3)cc2)n2c1CCC2
GI50 (SNB-75): > 100 µM (inactive)
GI50 (SK-MEL-2): > 100 µM (inactive)
GI50 (OVCAR-8): > 100 µM (inactive)
GI50 (KM12): > 100 µM (inactive)
GI50 (SK-MEL-28): > 100 µM (inactive)
GI50 (OVCAR-3): > 100 µM (inactive)
GI50 (COLO 205): > 100 µM (inactive)
GI50 (OVCAR-5): > 100 µM (inactive)
GI50 (HT-29): > 100 µM (inactive)
GI50 (HOP-92): > 100 µM (inactive)
GI50 (SF-539): 42.2 µM (inactive)
GI50 (MCF7): > 100 µM (inactive)
GI50 (NCI-H522): > 100 µM (inactive)
GI50 (HCT-15): > 100 µM
GI50 (SN12C): > 100 µM (inactive)
GI50 (MDA-N): > 100 µM (inactive)
GI50 (MOLT-4): > 100 µM (inactive)
GI50 (NCI/ADR-RES): > 100 µM (inactive)
GI50 (K562): > 100 µM (inactive)
GI50 (786-0): > 100 µM (inactive)
GI50 (MDA-MB-231): > 100 µM (inactive)
GI50 (IGROV-1): > 100 µM (inactive)
GI50 (SK-MEL-5): > 100 µM (inactive)
GI50 (TK-10): > 100 µM (inactive)
GI50 (LOX IMVI): > 100 µM (inactive)
GI50 (U-251): > 100 µM (inactive)
GI50 (A549): > 100 µM (inactive)
GI50 (SR): > 100 µM (inactive)
GI50 (SF-295): > 100 µM (inactive)
GI50 (HL-60): 86.7 µM (inactive)
GI50 (SW-620): > 100 µM (inactive)
GI50 (T47D): > 100 µM (inactive)
GI50 (UO-31): > 100 µM (inactive)
GI50 (RPMI-8226): > 100 µM (inactive)
GI50 (Malme-3M): > 100 µM (inactive)
GI50 (HCC 2998): > 100 µM (inactive)
GI50 (M14): > 100 µM (inactive)
GI50 (BT-549): > 100 µM (inactive)
GI50 (MDA-MB-435): > 100 µM (inactive)
GI50 (PC-3): > 100 µM (inactive)
GI50 (UACC-257): > 100 µM (inactive)
GI50 (DU-145): > 100 µM (inactive)
GI50 (SF-268): > 100 µM (inactive)
GI50 (A498): 79.3 µM (inactive)
GI50 (CAKI-1): > 100 µM (inactive)
GI50 (SK-OV-3): > 100 µM (inactive)
GI50 (ACHN): 32.4 µM (inactive)
GI50 (EKVX): > 100 µM (inactive)
GI50 (RXF 393): 50.1 µM (inactive)
GI50 (OVCAR-4): > 100 µM (inactive)
GI50 (NCI-H226): > 100 µM (inactive)
GI50 (UACC-62): > 100 µM (inactive)
GI50 (HCT-116): > 100 µM (inactive)
GI50 (CCRF-CEM): > 100 µM (inactive)
GI50 (HOP-62): > 100 µM (inactive)
GI50 (NCI-H23): > 100 µM (inactive)
GI50 (NCI-H460): > 100 µM (inactive)
GI50 (SNB-19): > 100 µM (inactive)
GI50 (Hs-578T): > 100 µM (inactive)

CC1=NN(c2nc(N)nc(C(C#N)C(=O)c3cc4c(cc3Cl)Sc3nccn3S4(=O)=O)n2)C(C)(C)C1 (stereo not drawn)
GI50 (SNB-75): 16.1 µM (inactive)
GI50 (SK-MEL-2): 20.2 µM (inactive)
GI50 (OVCAR-8): 20.7 µM (inactive)
GI50 (KM12): 20 µM (inactive)
GI50 (SK-MEL-28): 20 µM (inactive)
GI50 (OVCAR-3): 13.6 µM (inactive)
GI50 (COLO 205): 24.9 µM (inactive)
GI50 (OVCAR-5): > 100 µM (inactive)
GI50 (HT-29): 34.3 µM (inactive)
GI50 (HOP-92): 26.7 µM (inactive)
GI50 (SF-539): 37.7 µM (inactive)
GI50 (MCF7): 14.3 µM (inactive)
GI50 (NCI-H522): 18.6 µM (inactive)
GI50 (HCT-15): 6.44 µM
GI50 (SN12C): 17.3 µM (inactive)
GI50 (MDA-N): 21.9 µM (inactive)
GI50 (MOLT-4): 13 µM (inactive)
GI50 (NCI/ADR-RES): > 100 µM (inactive)
GI50 (K562): 34.9 µM (inactive)
GI50 (786-0): 13.5 µM (inactive)
GI50 (MDA-MB-231): 15.6 µM (inactive)
GI50 (IGROV-1): 20.8 µM (inactive)
GI50 (SK-MEL-5): 14 µM (inactive)
GI50 (TK-10): 17.9 µM (inactive)
GI50 (LOX IMVI): 17.7 µM (inactive)
GI50 (U-251): 16 µM (inactive)
GI50 (A549): 61.4 µM (inactive)
GI50 (SR): 4.4 µM (inactive)
GI50 (SF-295): 20.5 µM (inactive)
GI50 (HL-60): 10.3 µM (inactive)
GI50 (SW-620): 20.5 µM (inactive)
GI50 (T47D): 14.6 µM (inactive)
GI50 (UO-31): 30.1 µM (inactive)
GI50 (RPMI-8226): 14.9 µM (inactive)
GI50 (Malme-3M): 14.3 µM (inactive)
GI50 (HCC 2998): 8.41 µM (inactive)
GI50 (M14): 34.5 µM (inactive)
GI50 (BT-549): 13.6 µM (inactive)
GI50 (MDA-MB-435): 22.8 µM (inactive)
GI50 (PC-3): 29.2 µM (inactive)
GI50 (UACC-257): 19.2 µM (inactive)
GI50 (DU-145): 16.8 µM (inactive)
GI50 (SF-268): 13.6 µM (inactive)
GI50 (A498): 52.1 µM (inactive)
GI50 (CAKI-1): 13.5 µM (inactive)
GI50 (SK-OV-3): 18.5 µM (inactive)
GI50 (ACHN): 13.4 µM (inactive)
GI50 (EKVX): 16.9 µM (inactive)
GI50 (RXF 393): 27.3 µM (inactive)
GI50 (OVCAR-4): 10.1 µM (inactive)
GI50 (NCI-H226): 16.5 µM (inactive)
GI50 (UACC-62): 18.8 µM (inactive)
GI50 (HCT-116): 18 µM (inactive)
GI50 (CCRF-CEM): 6.84 µM (inactive)
GI50 (HOP-62): 34.7 µM (inactive)
GI50 (NCI-H23): 16.1 µM (inactive)
GI50 (NCI-H460): 8.83 µM (inactive)
GI50 (SNB-19): 55.6 µM (inactive)
GI50 (Hs-578T): 32.2 µM (inactive)
